Experiment [1] concerns BAF3 cells expressing AXL. The experiment can be described thus: BAF3-AXL cell proliferation assay (CellTiter-Glo). The experiment is classed as cell-based. The note with it: Mus musculus, 48 hours, 2% FBS. From the text: To evaluate the cellular potency and selectivity within the TAM receptor family, mouse BAF3 cell lines with stable expression of AXL, MER, or TYRO3 were generated.
The cytoplasmic domain of AXL, MER, or TYRO3 fused with dimerization sequence and HA tag was cloned into a pMSCV (murine stem cell virus) vector with a puromycin-resistance marker to generate three constructs individually by electroporation into BAF3 cells. Single clones that were IL-3-independent and puromycin-resistant were selected and characterized. To evaluate effects on BAF3 cell proliferation, 1000 cells/well of BAF3, BAF3-AXL, BAF3 MER, or BAF3-TYRO3 cells were treated in the presence or absence of Compound 1 at various concentrations (10 concentration points with a three-fold dilution factor from the highest concentration of 10 μM) diluted in RPMI-1640 with 2% FBS for 48 hours in a 384-well plate. Cell viability was measured by ATP assay (CellTiter-Glo Assay, Promega, Madison, Wis.) according to the manufacturer's procedure. The data were converted to percent inhibition relative to DMSO control, and IC50 curves were fitted using GraphPad Prism software.
In general terms: ATP-based viability assays read luminescence as a measure of living cells.

For experiment [2], the system named is CTG-1339 tumors. Put plainly: Sarcoma PDX model CTG-1339 (osteosarcoma). The experiment is classed as in vivo, athymic nude mice. How it is done: Macrophages were allowed to thaw on ice before being lysed with 250 μL/well of 1× Lysis Buffer (Cell Signaling Technology; #9803) and Halt protease and phosphatase inhibitors (ThermoFisher Scientific) for 1 hour at 4° C. The lysed cells were scraped and transferred to an Eppendorf vial on ice. The lysates were centrifuged at 12,700 rpm for 15 minutes at 4° C. PDX tumors were weighed and homogenized with lysis buffer supplemented with protease and phosphatase inhibitor cocktails (Roche, Basel, Switzerland; #11836170001). Tumors were lysed on ice for 30 minutes, followed by centrifugation at 13,000 rpm for 10 minutes. Protein lysates were quantified using BCA Protein Assay Kit (Pierce, ThermoFisher Scientific; #23225). Lysates were transferred to a new tube together with 6× Laemmli SDS sample buffer (Alfa Aesar, Haverhill, Mass.) and the samples were heated for 6 minutes at 95° C. Approximately 50 μg of protein sample was loaded per well using Novex™ 8-16% Tris-Glycine Mini Gels or 4-12% Tris-Glycine Novex WedgeGels (Invitrogen, Carlsbad, Calif.). The proteins were transferred to a nitrocellulose membrane using an iBlot (ThermoFisher Scientific) dry blotting system. The membranes were blocked with 0.5% nonfat dry milk in wash buffer (100 mM NaCl, 10 mM Tris-HCl, pH 8.0, 0.1% Tween 20) for 1 hour at room temperature. The primary antibody used for pMER was from PhosphoSolutions (Aurora, Colo.; #p186-749). The remaining antibodies were obtained from Cell Signaling Technology: MER (#4319), pAXL (#5724), AXL, (#4566), GAS6 (#67202), pAKT (#4060), AKT (#9272), and β-Actin (#4970). Primary antibodies were added at 1:500 and 1:1000, respectively, in 0.5% milk/wash buffer and rocked overnight at 4° C. The membranes were washed three times in wash buffer before incubation with the secondary antibody (anti-rabbit IgG1-HRP; Cell Signaling Technology) at 1:2500 in 0.5% milk/wash buffer for 2 hours at room temperature. The membranes were washed again before the bands were detected with SuperSignal West Dura Extended Duration Chemiluminescent substrate (ThermoFisher Scientific) and were visualized using the Fluorochem M Digital Imager (Protein Simple, San Jose, Calif.).
MBT-2 cells were obtained from the Japanese Collection of Research Bioresources Cell Bank and were maintained in DMEM supplemented with 10% FBS. MC38 cells were obtained from the NCI. 4T1 cells were obtained from ATCC and maintained in RPMI media supplemented with 10% FBS. For MBT-2 experiments, 5×10^5 MBT-2 cells were inoculated subcutaneously into the right hind flank of 6- to 8-week-old C3H mice or athymic nude mice (Charles River Laboratories, Wilmington, Mass.). […] Mice were monitored for tumor growth and overt tolerability over the course of the experiment. […]

The values that follow come from patent US12214036B2, “Combination therapy comprising AXL/MER and PD-1/PD-L1 inhibitors” (Incyte Corporation, priority 2020, dated 2025).

Molecules are shown by their SMILES.

Broadly, the GI50 is the concentration at which growth is held to half of that of the control. A low value points to greater sensitivity of the cells. As to `CC(C)C(=O)N1CCC(c2cc(-c3ccc(NC(=O)c4cn(C(C)C)c(=O)n(-c5ccccn5)c4=O)cc3)c3c(N)ncnn23)CC1` [Compound 1, N-(4-(4-Amino-7-(1-isobutyrylpiperidin-4-yl)pyrrolo[1,2-f][1,2,4]triazin-5-yl)phenyl)-1-isopropyl-2,4-dioxo-3-(pyridin-2-yl)-1,2,3,4-tetrahydropyrimidine-5-carboxamide], the GI50 in experiment [1] amounted to 16 ± 11 nM. Further, the antitumor response entry in experiment [2] (CTG-1339, 10, 30, 100 mg/kg BID oral, FIG. 9C) was “resistant”. In addition, in experiment [2] (CTG-1339 tumors, FIG. 9D), the “pAKT in tumors (Western blot)” value was “only inhibited in CTG-2041”; the “pAXL and pMER in tumors (Western blot)” value is listed as “inhibited”; the “total MER levels in tumors (Western blot)” value is recorded as “increased”.
